# Values quoted from earlier work in paper PMC9401498 (Clinical Cancer Research, 2021).
# System: solid tumor xenograft mouse models
# Conditions: preclinical, e.g., RCC, NSCLC, TNBC, hematologic malignancies; alone and in combination; cited from earlier work
compound,measurement,value
"O=C(Cc1cccc(OC(F)(F)F)c1)Nc1ccc(CCCCc2nnc(NC(=O)Cc3ccccn3)s2)nn1 [telaglenastat, Telaglenastat]",effect on tumor growth,cytostatic-suppressive effects against tumor growth
